{
  "source": "patent US5155107A",
  "about": "“17β-substituted-4-aza-5α-androstan-3-one derivatives and process for their preparation” (Farmitalia Carlo Erba, priority 1990, dated 1992)",
  "key": {"[1]": {"biological_target": "T1, cytoplasmic androgen (rat prostate) receptors (Rattus norvegicus, UniProt P15207)", "T1 construct": "Prostatic tissue, obtained from adrenalectomized and castrated Sprague-Dawley rats; from tissue; host or cells: prostate cytosol of adrenalectomized and castrated Sprague-Dawley rats", "T1 sequence (P15207 1-902)": "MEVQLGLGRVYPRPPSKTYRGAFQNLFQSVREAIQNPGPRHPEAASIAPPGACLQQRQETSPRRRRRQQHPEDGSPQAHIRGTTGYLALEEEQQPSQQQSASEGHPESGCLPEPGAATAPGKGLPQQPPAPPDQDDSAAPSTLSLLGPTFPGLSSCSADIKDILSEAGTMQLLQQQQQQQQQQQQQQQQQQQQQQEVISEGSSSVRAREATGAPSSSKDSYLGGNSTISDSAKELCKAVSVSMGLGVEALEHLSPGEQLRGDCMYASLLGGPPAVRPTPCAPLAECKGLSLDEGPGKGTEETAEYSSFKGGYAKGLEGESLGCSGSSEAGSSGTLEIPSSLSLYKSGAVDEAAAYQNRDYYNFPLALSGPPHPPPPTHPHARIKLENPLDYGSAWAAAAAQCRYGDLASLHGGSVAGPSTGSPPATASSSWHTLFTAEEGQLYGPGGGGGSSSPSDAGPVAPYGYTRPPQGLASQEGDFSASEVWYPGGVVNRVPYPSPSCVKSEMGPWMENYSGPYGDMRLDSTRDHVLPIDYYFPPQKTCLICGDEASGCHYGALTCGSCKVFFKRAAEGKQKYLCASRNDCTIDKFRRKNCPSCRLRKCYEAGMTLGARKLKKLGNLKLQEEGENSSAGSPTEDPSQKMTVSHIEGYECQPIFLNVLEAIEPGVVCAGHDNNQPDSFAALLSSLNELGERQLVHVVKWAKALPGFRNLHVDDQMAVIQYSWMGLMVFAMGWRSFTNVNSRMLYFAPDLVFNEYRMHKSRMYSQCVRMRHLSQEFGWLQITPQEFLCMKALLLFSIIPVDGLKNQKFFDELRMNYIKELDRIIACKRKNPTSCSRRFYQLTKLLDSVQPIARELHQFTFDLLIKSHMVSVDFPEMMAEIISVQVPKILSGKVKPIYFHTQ", "assay": "Rat prostate androgen receptor binding (inhibition of 3H-DHT binding)", "set-up": "species or system Sprague-Dawley rats", "experimental": "For their use in androgen- dependent conditions, the 5α-reductase inhibitors, should have a very low intrinsic androgenic activity, which can be shown by the binding affinity to the androgen receptor.\nA low binding affinity to the androgen receptor is therefore desirable in a 5α-reductase inhibitor for use in the treatment of androgen dependent conditions.\nBinding affinity to cytoplasmic androgen (rat prostate) receptors was determined by standard dextran-coated absorption technique (Raynaud J. P. et al., J. Steroid. Biochem. 6: 615-622, 1975).\nProstatic tissue, obtained from adrenalectomized and castrated Sprague-Dawley rats, was homogenized in 10 mM Tris HCl pH 7.4, containing 1.5 mM EDTA and 1 mM dithiothreitol in motor driven tissue grinders. The homogenate was centrifuged at 10,000×g for 1 h at 4° C.\nAliquots of cytosol 00.2 ml) were incubated for 2 hours at 0° C. with various concentrations of the test compounds, in duplicate, and a fixed amount of ^3 H-dihydrotesterone (DHT) final concentration 1 nM in 0.4 ml of incubation volume).\nThen, free radioactivity was absorbed on 0.2 ml of dextran-coated charcoal suspension and after centrifugation at 1,500×g for 10 min., the bound radioactivity in the supernatant was determined by liquid scintillation in Rialuma.\nThe concentration of each compound required to reduce specific ^3 H-DHT binding by 50% (IC50) was determined from a plot of bound radioactivity versus log of competitor concentration.\nIn the above test the Compound 1 of the present invention was compared with the same above identified reference compound 4-MA and the obtained results are reported in the following Table 3."}, "[2]": {"biological_target": "T2, 5α-reductase (particulate fraction of human benign prostatic hypertrophy tissue) (Homo sapiens, UniProt P31213)", "T2 construct": "homogenates of human benign prostatic hypertrophy tissue as the enzyme source; from tissue; host or cells: human benign prostatic hypertrophy tissue, 40,000×g particulate fraction (nuclei, microsomes, mitochondria)", "T2 sequence (P31213 1-254)": "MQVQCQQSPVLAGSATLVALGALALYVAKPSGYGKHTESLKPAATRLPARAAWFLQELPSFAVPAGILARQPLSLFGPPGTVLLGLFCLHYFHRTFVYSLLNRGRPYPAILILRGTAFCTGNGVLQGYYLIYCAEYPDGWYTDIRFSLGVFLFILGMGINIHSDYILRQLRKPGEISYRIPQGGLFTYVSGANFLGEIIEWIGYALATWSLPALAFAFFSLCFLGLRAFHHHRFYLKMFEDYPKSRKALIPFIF", "assay": "Inhibition of prostatic 5α-reductase in vitro", "assay_type": "biochemical", "experimental": "For example, the inhibitory effect of the compounds of the invention on 5α-reductase was determined in vitro in comparison with progesterone taken as the reference compound, according to the procedure reported herebelow.\nInhibition of 5α-reductase was evaluated using the particulate fraction (containing nuclei, microsomes and mitochondria) from homogenates of human benign prostatic hypertrophy tissue as the enzyme source. The particulate fraction was prepared centrifuging prostate homogenate at 40,000×g. The resulting pellet, washed several times, was resuspended in buffer and stored at -80° C. in aliquots containing ≈10 mg protein/ml.\nThe assay for 5α-reductase was done in a final volume of 0.5 ml, containing 1 mM dithiothreitol, 40 mM TRIS-HCl buffer pH 5.0, 5 mM NADPH, 1 μM [4-^14 C]testosterone, 0.3 mg of prostate particulate fraction and various concentrations of the inhibitors. After 30 min incubation at 37° C. the reaction was terminated by addition of 1.5 ml diethyl ether and the organic phase was separated, evaporated under N2 and resuspended in ethyl acetate. Testosterone metabolites in this extract were separated in TLC on silica gel F 254 plates (Merck) using chloroform, acetone and n-hexane (2:1:2) as developing solvent system. Radioactivity on the plate was scanned and analyzed from quantitative plots printed by a TLC-analyzer (Berthold). The fractional 5α-reduction of testosterone was calculated by relating the ^14 C-radioactivity in the 5α-reduced metabolites (5α-dihydrotestosterone, 3α- and 3β-androstanediols) regions to the total radioactivity in the testosterone and 5α-reduced metabolites regions.\nThe concentration of each compound required to reduce control 5α-reductase by 50% (IC50) was determined by plotting % inhibition versus log of inhibitor concentration.\nAs an example, the potency of three representative compounds of the invention, namely 4-methyl-17β-[N-isopropyl-N-(N-isopropylcarbamoyl)carbamoyl]-4-aza-5α-androstan-3-one (Compound 1), 4-methyl-17β-[N-cyclohexyl-N-(N-cyclohexylcarbamoyl) carbamoyl-4-aza-5α-androstan-3-one (Compound 11) and 4-methyl-17β-[N-isopropyl-N-(N-isopropylthiocarbamoyl)carbamoyl-4-aza-5α-androstan-3-one (Compound 39) are reported in Table 1 in comparison with progesterone."}, "[3]": {"system": "5α-reductase of rat prostate", "assay": "Inhibition of prostate growth stimulated by testosterone propionate in castrated rats", "assay_type": "in vivo", "conditions": "for Inhibition of prostate growth stimulated by testosterone propionate: 7 days, testosterone propionate 0.3 mg/kg/day s.c.", "experimental": "The compounds of the invention were also tested for their in vivo potency in inhibiting 5α-reductase of rat prostate, according to the following procedure.\nPrepuberal 21-day old male rat were castrated via scrotal incision in light ether anaesthesia.\nStarting on the seventh day after orchiectomy, the rats were treated with testosterone propionate (0.3 mg/kg/day subcutaneously) for 7 consecutive days to stimulate prostate growth. The 5α-reductase inhibitors were given orally at various doses once daily for 7 days, together with the standard dose of testosterone propionate.\nThus, for example, in the above test the compound 1 of the present invention was compared with the well known 5α-reductase inhibitor 4-methyl-17β-N,N-diethyl-carbamoyl-4-methyl-4-aza-5α-androstan- 3-one, identified as 4-MA and described, e.g., in U.S. Pat. No. 4,377,584) giving the results reported in the following Table 2."}, "[4]": {"conditions": "human BPH particulate fraction, 1 μM [4-14C]testosterone, pH 5.0, 30 min, 37° C., read-out: Inhibition of prostatic 5α-reductase IC50"}},
  "note": "Like-named read-outs stand apart in the source and are kept apart here.",
  "data": [
    {"molecule": "CC(C)NC(=O)N(C(=O)[C@H]1CC[C@H]2[C@@H]3CC[C@H]4N(C)C(=O)CC[C@]4(C)[C@H]3CC[C@]12C)C(C)C", "note": "[Compound 1, 4-methyl-17β-[N-isopropyl-N-(N-isopropylcarbamoyl)carbamoyl]-4-aza-5α-androstan-3-one]", "values": [
      {"measurement": "IC50", "setting": "[1]", "result": 150000, "unit": "nM"},
      {"measurement": "selectivity versus androgen receptor binding", "setting": "[1]; Compound 1 versus reference compound 4-MA", "result": "more selective than the reference compound 4-MA"},
      {"measurement": "displacement of DHT from the prostatic androgen receptor", "setting": "[1]; Table 3", "result": "displaces DHT from the prostatic androgen receptor only at a very high concentration"},
      {"measurement": "IC50", "setting": "[2]; [4]", "result": 55, "unit": "nM"},
      {"measurement": "Inhibition of prostate growth stimulated by testosterone propionate", "setting": "[3]; 3 mg/kg/day p.o.", "result": 33, "unit": "%"},
      {"measurement": "Inhibition of prostate growth stimulated by testosterone propionate", "setting": "[3]; 10 mg/kg/day p.o.", "result": 55, "unit": "%"}
    ]},
    {"molecule": "CCN(CC)C(=O)[C@H]1CC[C@H]2[C@@H]3CC[C@H]4N(C)C(=O)CC[C@]4(C)[C@H]3CC[C@]12C", "note": "[Compound 4-MA, 4-methyl-17β-N,N-diethyl-carbamoyl-4-methyl-4-aza-5α-androstan-3-one]", "values": [
      {"measurement": "displaces DHT at a concentration lower than Compound 1 (fold)", "setting": "[1]; 4-MA versus Compound 1", "result": 60, "unit": "times lower"},
      {"measurement": "IC50", "setting": "[1]; rat prostate cytosol, 1 nM 3H-DHT, 2 hours, 0° C., read-out: Inhibition of DHT binding IC50", "result": 2500, "unit": "nM"},
      {"measurement": "Inhibition of prostate growth stimulated by testosterone propionate", "setting": "[3]; 3 mg/kg/day p.o.", "result": 1, "unit": "%"},
      {"measurement": "Inhibition of prostate growth stimulated by testosterone propionate", "setting": "[3]; 10 mg/kg/day p.o.", "result": 0, "unit": "%"},
      {"measurement": "Inhibition of prostate growth stimulated by testosterone propionate", "setting": "[3]; 30 mg/kg/day p.o.", "result": 49, "unit": "%"},
      {"measurement": "in vivo effect on the hypertrophic response to testosterone propionate", "setting": "[3]; same dose, 10 mg/kg/day oral", "result": "completely ineffective"}
    ]},
    {"molecule": "CN1C(=O)CC[C@]2(C)[C@H]3CC[C@]4(C)[C@@H](C(=O)N(C(=O)NC5CCCCC5)C5CCCCC5)CC[C@H]4[C@@H]3CC[C@@H]12", "note": "[Compound 11, 4-methyl-17β-[N-cyclohexyl-N-(N-cyclohexylcarbamoyl)carbamoyl]-4-aza-5α-androstan-3-one]", "values": [
      {"measurement": "IC50", "setting": "[2]; [4]", "result": 41, "unit": "nM"}
    ]},
    {"molecule": "CC(C)NC(=S)N(C(=O)[C@H]1CC[C@H]2[C@@H]3CC[C@H]4N(C)C(=O)CC[C@]4(C)[C@H]3CC[C@]12C)C(C)C", "note": "[Compound 39, 4-methyl-17β-[N-isopropyl-N-(N-isopropylthiocarbamoyl)carbamoyl]-4-aza-5α-androstan-3-one]", "values": [
      {"measurement": "IC50", "setting": "[2]; [4]", "result": 11, "unit": "nM"}
    ]},
    {"molecule": "CC(=O)[C@H]1CC[C@H]2[C@@H]3CCC4=CC(=O)CC[C@]4(C)[C@H]3CC[C@]12C", "note": "[Progesterone, progesterone, reference compound]", "values": [
      {"measurement": "IC50", "setting": "[2]", "result": 1980, "unit": "nM"}
    ]}
  ]
}
